{"source": "patent US12291581B2", "about": "“Serpin peptides and methods of using the same” (SERPIN PHARMA, LLC, priority 2012, dated 2025)", "key": {"[1]": {"experiment": "Pharmacokinetic profile after intravenous injection, plasma by LC/MS/MS", "format": "in vivo, rats", "conditions": "IV 5 mg/kg", "experimental": "In performing the assay, three normal rats were injected intravenously with 5 mg/kg SP16 and the plasma concentration of SP16 established at 8 time points following the injection. […] The assay was executed by Apredica, Boston, Mass."}, "[2]": {"system": "111 in vitro assay targets (human receptors)", "experiment": "Human receptor panning, GenSEP Explorer panel", "from_the_text": "In addition, we also performed a profile using human receptor panning. The GenSEP Explorer panel contains 111 in vitro assay targets carefully selected to assess drug/chemical biological activities. Assay categories include GPCRs, Voltage-Gated Ion Channels, Ligand-Gated Ion Channels, Neurotransmitter transporters, Nuclear Receptors and Steroids as well as a diverse set of biochemical targets including phosphodiesterases, kinases and other relevant enzymes."}, "hERG": {"biological_target": "hERG (Homo sapiens, UniProt Q12809)", "sequence (Q12809 whole entry)": "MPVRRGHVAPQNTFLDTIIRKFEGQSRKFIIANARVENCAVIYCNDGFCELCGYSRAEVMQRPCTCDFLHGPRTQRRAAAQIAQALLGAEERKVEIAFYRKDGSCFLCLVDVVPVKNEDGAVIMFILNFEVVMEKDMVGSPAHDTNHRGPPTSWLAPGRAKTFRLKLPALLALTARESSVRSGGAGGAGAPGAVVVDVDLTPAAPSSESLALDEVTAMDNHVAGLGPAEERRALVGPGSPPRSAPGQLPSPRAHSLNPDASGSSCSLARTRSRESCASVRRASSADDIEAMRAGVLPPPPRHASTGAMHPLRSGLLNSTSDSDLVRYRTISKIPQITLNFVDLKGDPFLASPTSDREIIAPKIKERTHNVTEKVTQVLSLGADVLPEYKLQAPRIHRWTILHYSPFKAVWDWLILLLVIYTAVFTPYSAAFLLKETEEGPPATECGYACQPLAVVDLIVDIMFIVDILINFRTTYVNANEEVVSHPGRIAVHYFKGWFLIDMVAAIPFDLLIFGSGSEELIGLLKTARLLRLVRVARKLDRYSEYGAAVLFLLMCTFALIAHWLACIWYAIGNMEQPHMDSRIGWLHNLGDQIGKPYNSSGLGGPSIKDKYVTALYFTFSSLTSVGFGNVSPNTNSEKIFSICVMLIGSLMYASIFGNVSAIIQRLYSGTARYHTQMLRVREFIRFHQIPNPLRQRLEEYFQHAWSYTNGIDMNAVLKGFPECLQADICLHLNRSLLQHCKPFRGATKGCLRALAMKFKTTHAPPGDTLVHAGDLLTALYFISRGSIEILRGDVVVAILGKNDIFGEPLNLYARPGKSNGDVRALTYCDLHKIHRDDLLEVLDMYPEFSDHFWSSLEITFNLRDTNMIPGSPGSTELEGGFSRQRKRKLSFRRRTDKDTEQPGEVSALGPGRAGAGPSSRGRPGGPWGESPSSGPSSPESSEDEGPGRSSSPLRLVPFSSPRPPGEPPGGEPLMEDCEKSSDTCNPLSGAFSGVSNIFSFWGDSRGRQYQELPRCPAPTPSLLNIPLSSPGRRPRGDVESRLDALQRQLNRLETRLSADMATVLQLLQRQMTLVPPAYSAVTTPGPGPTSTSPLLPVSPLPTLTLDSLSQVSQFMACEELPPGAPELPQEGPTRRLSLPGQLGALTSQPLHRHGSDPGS", "format": "cell-based", "text": "The SP16 safety profile also included hERG data. […] The study was executed by Apredica, Boston, MA."}, "TLR-2": {"biological_target": "T1, TLR-2 (Mus musculus, UniProt Q9QUN7)", "T1 construct": "host or cells: HEK-Blue mTLR2 (HEK293-derived reporter line, SEAP read-out)", "T1 sequence (Q9QUN7 25-784)": "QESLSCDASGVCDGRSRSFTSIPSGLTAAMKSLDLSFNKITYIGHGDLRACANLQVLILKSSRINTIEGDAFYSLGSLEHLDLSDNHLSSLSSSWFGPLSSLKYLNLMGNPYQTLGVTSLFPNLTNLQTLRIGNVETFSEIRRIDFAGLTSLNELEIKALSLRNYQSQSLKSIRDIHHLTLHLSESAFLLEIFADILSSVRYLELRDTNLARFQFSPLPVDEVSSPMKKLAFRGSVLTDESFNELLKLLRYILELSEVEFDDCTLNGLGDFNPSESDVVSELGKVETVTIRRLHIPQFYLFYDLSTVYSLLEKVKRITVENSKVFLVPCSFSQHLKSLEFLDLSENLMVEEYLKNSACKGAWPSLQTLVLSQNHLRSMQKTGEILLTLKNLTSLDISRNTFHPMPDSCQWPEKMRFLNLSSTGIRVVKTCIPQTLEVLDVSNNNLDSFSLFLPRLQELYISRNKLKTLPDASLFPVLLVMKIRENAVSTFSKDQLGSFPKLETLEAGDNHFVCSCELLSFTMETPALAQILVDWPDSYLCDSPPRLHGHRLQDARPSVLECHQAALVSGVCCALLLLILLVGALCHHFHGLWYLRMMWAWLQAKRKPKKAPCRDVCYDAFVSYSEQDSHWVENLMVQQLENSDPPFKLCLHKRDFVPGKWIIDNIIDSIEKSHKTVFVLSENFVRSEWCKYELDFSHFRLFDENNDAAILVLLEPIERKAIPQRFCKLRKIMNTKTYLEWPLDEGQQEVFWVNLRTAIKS", "experiment": "TLR-2 indicator cell line assay (HEK-Blue mTLR2), secreted alkaline phosphatase", "format": "cell-based", "conditions": "20 μg/ml peptide, 24 hours", "experimental": "Graph summarizing representative data from assays with an engineered TLR-2 indicator cell line (HEK-Blue™ mTLR2, Invivogen). Cells were incubated with the indicated concentrations of peptide for 24 hours. Upon TLR2 activation, the cells secrete alkaline phosphatase which can be assayed. The assay was done in triplicate and averages with standard deviations are plotted.\nGraph summarizing data from an experiment where an engineered TLR-2 indicator cell line (HEK-Blue™ mTLR2, Invivogen) was used to test the impact of substituting amino acid residues of the SP16 peptide with alanine (“alanine scan”). Cells were incubated with 20 μg/ml of the indicated peptides for 24 hours. Upon TLR2 activation, the cells secrete alkaline phosphatase which can be assayed. The assay was done in triplicate and averages are plotted. Peptide sequences are shown in the following figure. *p<0.05, compared with scrambled control (SP34).\nWe also performed a peptide optimization assay using an alanine scan with the TLR-2 assay. Data was obtained using an experiment with an engineered TLR-2 indicator cell line (HEK-BLUE™ mTLR2, Invivogen). Cells were incubated with the 20 μg/ml of the indicated peptides for 24 hours. Upon TLR2 activation, the cells secrete alkaline phosphatase, which can be assayed. The assay was done in triplicate and averages are plotted. […]"}, "LPS challenged mice": {"system": "LPS challenged mice", "experiment": "Mouse LPS challenge (sepsis/inflammation) model, serum TNF-alpha by ELISA", "format": "in vivo", "conditions": "for anti-inflammatory effect when administered to a mouse model of sepsis (FIG. 10): Table B peptides; for TNF-alpha levels in LPS challenged mice, alanine scanned SP16 peptides (FIG. 10B): compared with Dexamethasone positive control", "experimental": "FIGS. 10A and B. FIG. 10A presents exemplary peptides that were used to reduce TNF-alpha levels in mice subjected to an LPS challenge. […] The mice were treated with alanine scanned SP16 peptide. […] Based on this alanine screen, and without wishing to be bound by a theory, it appears that the C- and N-terminal amino acids contribute to the anti-inflammatory effect of the SP16 peptide. […] Groups of 3 animals were injected with 0.2 mg/kg peptide and subjected to LPS challenge. Serum TNF-alpha levels were determined by ELISA. Several peptides provided the same level of protection as 1 mg/kg Dexamethasone.\nThe ability of peptide drugs was tested to for their potential for the reduction of inflammatory cytokines following treatment with purified bacterial lipopolysaccharide (LPS)—a major component of bacterial cell wall of Gram-negative bacteria. A model of inflammation was used wherein mice were injected with LPS, which induced a transient immune response and a surge of serum inflammatory cytokines. The immune response peaks after 90 minutes and subsides after 24 hours. The levels of key serum inflammatory markers were compared between mice treated and untreated with LPS 90 minutes after injection.\nWe designed 18 different peptides based on the hAAT sequence (Accession #AAB59371), and had these synthesized using conventional FMOC chemistry. To assess in vivo anti-inflammatory and therapeutic potential, the peptides were tested in a mouse lipopolysaccharide (LPS) challenge model with serum TNFα levels as readout. Using dexamethasone as reference, groups of 3 animals were IP injected with 0.2 mg/kg peptide 2 hours prior to an LPS challenge, and serum TNFα levels determined 30 min after the LPS challenge, by ELISA. The best performing peptide reduced serum TNFα levels equivalent to those achieved with 1 mg/kg dexamethasone. Next, shortened versions of this peptide were synthesized, tested in the mouse LPS challenge model, and a 17 amino acid peptide, SP16, emerged as a lead development candidate for further characterization. Next, SP16 was tested in a lethal endotoxemia model, which models endotoxemia following acute radiation exposure, where Gram negative bacteria leaking from the gastro-intestinal system can cause lethal endotoxemia.\nMice were injected with 0.5, 0.1, 0.02 and 0.004 mg of each peptide. Mice were also treated with dexamethasone as a positive control and vehicle as a negative control. Two hours later each mouse was injected with LPS. Samples were taken 90 minutes after LPS injection.\nTo evaluate the effect of different amino acids in the SP16 peptide for the immunomodulating effect, we created an alanine screen. […] The peptides wherein the substitution occurred within amino acids 4-14 of SP16, appeared to maintain and rather improve their capacity to reduce TNF-alpha levels compared to the control Dexamethasone. The LPS mouse model is an established model for sepsis in humans and thus we conclude that peptides wherein the amino acids 1-3 and 15-17 are present, can be effectively used in humans to treat or prevent sepsis in conditions, such as burns or acute radiation, which expose humans to a high risk of developing endotoxemia."}, "NOD mice": {"system": "NOD mice", "experiment": "NOD mouse spontaneous autoimmune (type I) diabetes model", "format": "in vivo", "conditions": "groups of 12 NOD mice, vs scrambled control peptide", "experimental": "Groups of 12 animals were injected with SP16, hAAT or scrambled control peptide. Non-fasted blood glucose levels were measured twice a week and animals with two consecutive readings greater than 300 mg/dl were considered diabetic.\nNOD (non-obese diabetic) mice spontaneously develop overt, insulin-dependent type I diabetes. The NOD model is recommended by the FDA for preclinical testing of therapeutic agents for type I diabetes. Disease onset typically occurs at 12-14 weeks of age, with peri-insulitis detectable from about 4 weeks of age and developing into severe insulitis at 10 weeks of age. The autoimmune destruction of β-cells is thought to arise from dysregulation of multiple tolerance pathways, leading to islet infiltration with monocytes, predominantly CD4^+ and CD8^+ T cells, and insulitis, with subsequent hypoinsulinemia and hyperglycemia."}}, "note": "“Also recorded” adds a separate entry of the source."}
{"compound": "CC[C@H](C)[C@H](NC(=O)[C@H](CCSC)NC(=O)[C@H](CC(C)C)NC(=O)[C@H](Cc1ccccc1)NC(=O)[C@@H](NC(=O)[C@H](Cc1ccccc1)NC(=O)[C@@H]1CCCN1C(=O)[C@H](CCCCN)NC(=O)[C@H](CC(N)=O)NC(=O)[C@H](Cc1ccccc1)NC(=O)[C@H](CCCCN)NC(=O)[C@@H](N)C(C)C)C(C)C)C(=O)N[C@@H](CCC(=O)O)C(=O)N[C@@H](CCC(N)=O)C(=O)N[C@@H](CC(N)=O)C(=O)N[C@H](C(=O)N[C@@H](CCCCN)C(=O)O)[C@@H](C)O", "note": "[SP16]", "values": [{"measurement": "Last Time point", "setting": "[1]; normal rats", "value": 8.0}, {"measurement": "t1/2", "setting": "[1]; normal rats", "value": 1.9, "unit": "h"}, {"measurement": "Cmax", "setting": "[1]; three normal rats, plasma", "value": 2500, "unit": "ng/mL"}, {"measurement": "T1/2 (half-life)", "setting": "[1]; three normal rats, plasma", "value": 1.9, "unit": "h"}, {"measurement": "effect on the whole GenSEP Explorer panel", "setting": "[2]; 111 human receptors", "value": "not able to identify any hits; also recorded: no effect on 111 human receptors"}, {"measurement": "Percent inhibition", "setting": "[2]; Brain/gut peptides, 15 receptors tested", "value": "Insignificant"}, {"measurement": "Percent inhibition", "setting": "[2]; Cell-Based, Functional, 1 receptor tested", "value": "Insignificant"}, {"measurement": "Percent inhibition", "setting": "[2]; Enzymes, 20 receptors tested", "value": "Insignificant"}, {"measurement": "Percent inhibition", "setting": "[2]; Enzymes, Kinases, 11 receptors tested", "value": "Insignificant"}, {"measurement": "Percent inhibition", "setting": "[2]; Growth factors & hormones, 2 receptors tested", "value": "Insignificant"}, {"measurement": "Percent inhibition", "setting": "[2]; Ion Channels, 8 receptors tested", "value": "Insignificant"}, {"measurement": "Percent inhibition", "setting": "[2]; Neurotransmitter Related, 47 receptors tested", "value": "Insignificant"}, {"measurement": "Percent inhibition", "setting": "[2]; Second Messengers, 3 receptors tested", "value": "Insignificant"}, {"measurement": "Percent inhibition", "setting": "[2]; Steroids, 4 receptors tested", "value": "Insignificant"}, {"measurement": "comment on hERG inhibition", "setting": "hERG; hERG FastPatch, 0.008-25 μM", "value": "No concentration-dependent"}, {"measurement": "IC50", "setting": "hERG; hERG FastPatch, test conc 0.008-25 μM (SP16), 0.01-10 μM (Quinidine)", "value": "> 25", "unit": "µM"}, {"measurement": "hERG inhibition", "setting": "hERG; up to 25 μM", "value": "does not impact hERG activity; also recorded: does not inhibit hERG"}]}
{"compound": "A A A N K P F V F L M I E Q N T K (AAANKPFVFLMIEQNTK; listed as Homo sapiens) [SP37, SP16 with residues 1-3 substituted with alanines]", "values": [{"measurement": "impact on TLR-2 signaling, alanine scan, FIG. 12/13", "setting": "TLR-2", "value": "no impact on TLR2"}]}
{"compound": "V K F A A A F V F L M I E Q N T K (VKFAAAFVFLMIEQNTK; listed as Homo sapiens) [SP40, alanine scanned SP16 peptide]", "values": [{"measurement": "anti-inflammatory effect when administered to a mouse model of sepsis (FIG. 10)", "setting": "LPS challenged mice", "value": "particularly good anti-inflammatory effect"}, {"measurement": "TNF-alpha levels in LPS challenged mice, alanine scanned SP16 peptides (FIG. 10B)", "setting": "LPS challenged mice", "value": "reduce TNF-alpha levels more than Dexamethasone"}]}
{"compound": "V K F N K P A A A L M I E Q N T K (VKFNKPAAALMIEQNTK; listed as Homo sapiens) [SP43, alanine scanned SP16 peptide]", "values": [{"measurement": "anti-inflammatory effect when administered to a mouse model of sepsis (FIG. 10)", "setting": "LPS challenged mice", "value": "particularly good anti-inflammatory effect"}, {"measurement": "TNF-alpha levels in LPS challenged mice, alanine scanned SP16 peptides (FIG. 10B)", "setting": "LPS challenged mice", "value": "reduce TNF-alpha levels more than Dexamethasone"}]}
{"compound": "V K F N K P F V F A A A E Q N T K (VKFNKPFVFAAAEQNTK; listed as Homo sapiens) [SP46, alanine scanned SP16 peptide]", "values": [{"measurement": "anti-inflammatory effect when administered to a mouse model of sepsis (FIG. 10)", "setting": "LPS challenged mice", "value": "particularly good anti-inflammatory effect"}, {"measurement": "TNF-alpha levels in LPS challenged mice, alanine scanned SP16 peptides (FIG. 10B)", "setting": "LPS challenged mice", "value": "reduce TNF-alpha levels more than Dexamethasone"}]}
{"compound": "V K F N K P F V F L M I A A A T K (VKFNKPFVFLMIAAATK; listed as Homo sapiens) [SP49, alanine scanned SP16 peptide]", "values": [{"measurement": "anti-inflammatory effect when administered to a mouse model of sepsis (FIG. 10)", "setting": "LPS challenged mice", "value": "particularly good anti-inflammatory effect"}, {"measurement": "TNF-alpha levels in LPS challenged mice, alanine scanned SP16 peptides (FIG. 10B)", "setting": "LPS challenged mice", "value": "reduce TNF-alpha levels more than Dexamethasone"}]}
{"compound": "hAAT: human alpha-1-antitrypsin, parent protein of SP16", "values": [{"measurement": "incidence / development of diabetes (two consecutive non-fasted glucose readings greater than 300 mg/dl)", "setting": "NOD mice", "value": "delayed and reduced the incidence of diabetes"}]}
